Experimental data reported in ChEMBL document CHEMBL4627302, “Design, synthesis and anticancer activities of novel dual poly(ADP-ribose) polymerase-1/histone deacetylase-1 inhibitors” (Bioorg Med Chem Lett, 2020).
pIC50: −log10 of the molar value. The source made the active and inactive calls. No cut-off for these calls is given here.

Key:
MDA-MB-231 = assay: Antiproliferative activity against human MDA-MB-231 cells assessed as cell growth inhibition by MTT assay; format: functional
K562 = assay: Antiproliferative activity against human K562 cells assessed as cell growth inhibition by MTT assay; format: functional
MCF7 = assay: Antiproliferative activity against human MCF7 cells assessed as cell growth inhibition by MTT assay; format: functional
[1] = biological target: T1, Poly [ADP-ribose] polymerase 1 (Homo sapiens, UniProt P09874); assay: Inhibition of PARP1 (unknown origin); conditions: for pIC50: read-out: IC50
T1 sequence (P09874 whole entry): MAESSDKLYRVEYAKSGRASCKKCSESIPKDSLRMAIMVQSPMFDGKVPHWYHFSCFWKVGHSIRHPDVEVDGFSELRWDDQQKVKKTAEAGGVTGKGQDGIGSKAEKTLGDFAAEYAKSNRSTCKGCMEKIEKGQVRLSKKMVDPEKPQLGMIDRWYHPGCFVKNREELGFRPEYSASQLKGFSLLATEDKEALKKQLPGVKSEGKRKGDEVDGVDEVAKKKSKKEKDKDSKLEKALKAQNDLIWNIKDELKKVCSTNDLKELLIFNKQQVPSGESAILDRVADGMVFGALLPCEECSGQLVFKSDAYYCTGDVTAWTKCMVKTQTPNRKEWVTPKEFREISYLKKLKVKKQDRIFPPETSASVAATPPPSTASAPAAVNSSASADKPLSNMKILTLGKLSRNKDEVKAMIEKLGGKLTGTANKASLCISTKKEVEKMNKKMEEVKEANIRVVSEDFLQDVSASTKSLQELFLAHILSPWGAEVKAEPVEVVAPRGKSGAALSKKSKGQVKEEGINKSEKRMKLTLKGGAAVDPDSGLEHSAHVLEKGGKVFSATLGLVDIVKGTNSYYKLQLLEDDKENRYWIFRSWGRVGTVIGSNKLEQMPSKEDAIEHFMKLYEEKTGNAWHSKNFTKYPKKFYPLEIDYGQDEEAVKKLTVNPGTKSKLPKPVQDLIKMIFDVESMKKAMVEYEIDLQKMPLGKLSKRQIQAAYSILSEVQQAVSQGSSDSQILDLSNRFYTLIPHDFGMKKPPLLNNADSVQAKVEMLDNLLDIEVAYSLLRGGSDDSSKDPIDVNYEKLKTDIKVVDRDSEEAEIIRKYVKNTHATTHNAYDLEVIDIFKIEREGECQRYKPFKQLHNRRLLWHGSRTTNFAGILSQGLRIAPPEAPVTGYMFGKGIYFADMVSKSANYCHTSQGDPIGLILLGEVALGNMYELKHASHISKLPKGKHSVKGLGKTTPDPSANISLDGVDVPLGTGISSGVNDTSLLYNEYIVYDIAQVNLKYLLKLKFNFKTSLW

Histone deacetylase 1 = Histone deacetylase 1 (Homo sapiens, UniProt Q13547); assay: Inhibition of HDAC1 (unknown origin); conditions: for pIC50: read-out: IC50
Histone deacetylase 1, sequence (Q13547 whole entry): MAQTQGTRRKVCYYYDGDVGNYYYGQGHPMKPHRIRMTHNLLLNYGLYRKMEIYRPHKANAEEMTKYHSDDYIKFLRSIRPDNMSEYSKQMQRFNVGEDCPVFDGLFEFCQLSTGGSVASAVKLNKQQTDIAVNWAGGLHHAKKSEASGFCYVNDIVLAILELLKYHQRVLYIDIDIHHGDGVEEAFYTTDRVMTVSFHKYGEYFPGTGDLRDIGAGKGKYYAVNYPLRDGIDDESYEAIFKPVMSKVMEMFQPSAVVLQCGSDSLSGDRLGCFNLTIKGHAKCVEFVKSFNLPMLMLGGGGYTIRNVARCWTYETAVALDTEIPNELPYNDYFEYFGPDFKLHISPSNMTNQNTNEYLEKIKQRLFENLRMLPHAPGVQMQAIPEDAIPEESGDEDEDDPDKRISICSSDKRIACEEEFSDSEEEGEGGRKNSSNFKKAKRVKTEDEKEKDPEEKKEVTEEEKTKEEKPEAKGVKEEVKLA

[2] = biological target: T1, Poly [ADP-ribose] polymerase 1; assay: Inhibition of PARP1 (unknown origin) at 20 nM relative to control
[3] = biological target: T1, Poly [ADP-ribose] polymerase 1; assay: Potency index, ratio of olaparib IC50 to test compound IC50 for inhibition of PARP1 (unknown origin)

Compound	GI50 (MDA-MB-231) [µM]	GI50 (K562)	GI50 (MCF7)	pIC50 [1]	pIC50 (Histone deacetylase 1)	inhibition [2] [%]	IC50 [1]	IC50 (Histone deacetylase 1)	Ratio IC50 [3]
Nc1ccccc1NC(=O)CCCCCNC(=O)c1cc(Cc2n[nH]c(=O)c3ccccc23)ccc1F	4.35	5.62 µM	inactive	8.37	6.47				
Nc1cc(F)ccc1NC(=O)CCCCNC(=O)c1cc(Cc2n[nH]c(=O)c3ccccc23)ccc1F	25.4		inactive		6.00	64.7			
Nc1ccc(F)cc1NC(=O)c1ccc(CNC(=O)/C=C/c2cccnc2)cc1	2.88	0.45 µM	1.43 µM				Not Active		
Nc1ccccc1NC(=O)c1ccc(CNC(=O)c2cc(Cc3n[nH]c(=O)c4ccccc34)ccc2F)cc1	59.3	0.408 µM	1.91 µM		6.85	37.4			
Nc1cc(F)ccc1NC(=O)CCCCCNC(=O)c1cc(Cc2n[nH]c(=O)c3ccccc23)ccc1F	40.5	14.7 µM	inactive		6.09	46.2			
Nc1cc(F)ccc1NC(=O)[C@H]1CC[C@H](CNC(=O)c2cc(Cc3n[nH]c(=O)c4ccccc34)ccc2F)CC1	49.2	6.61 µM	inactive		6.05	49.7			
Nc1cc(F)ccc1NC(=O)c1ccc(CNC(=O)c2cc(Cc3n[nH]c(=O)c4ccccc34)ccc2F)cc1	78.7	2.21 µM	11.5 µM		6.47	22.1			
Nc1ccccc1NC(=O)CCCCNC(=O)c1cc(Cc2n[nH]c(=O)c3ccccc23)ccc1F	61.6	62.4 µM	inactive		6.13	39.4			
Nc1ccc(F)cc1NC(=O)CCCCCNC(=O)c1cc(Cc2n[nH]c(=O)c3ccccc23)ccc1F	13.9	8.13 µM	inactive		6.28	65.9			
Nc1ccc(F)cc1NC(=O)CCCCNC(=O)c1cc(Cc2n[nH]c(=O)c3ccccc23)ccc1F	31.3	inactive	inactive		6.04	42.4			

The next lines start with the values.

GI50 (MDA-MB-231) [µM]	GI50 (K562)	GI50 (MCF7)	pIC50 [1]	pIC50 (Histone deacetylase 1)	inhibition [2] [%]	IC50 [1]	IC50 (Histone deacetylase 1)	Ratio IC50 [3]	Compound
1.03	inactive	inactive	8.74	6.02					Nc1ccc(F)cc1NC(=O)C1CCN(C(=O)c2cc(Cc3n[nH]c(=O)c4ccccc34)ccc2F)CC1
4.23	inactive	13.2 µM					Not Active		O=C(c1cc(Cc2n[nH]c(=O)c3ccccc23)ccc1F)N1CCN(C(=O)C2CC2)CC1 [OLAPARIB]
2.31	inactive	inactive	8.71	6.09				2	Nc1ccccc1NC(=O)C1CCN(C(=O)c2cc(Cc3n[nH]c(=O)c4ccccc34)ccc2F)CC1
50.5	2.92 µM	11.1 µM		6.47	41.3				Nc1ccccc1NC(=O)[C@H]1CC[C@H](CNC(=O)c2cc(Cc3n[nH]c(=O)c4ccccc34)ccc2F)CC1
4.49	inactive	inactive	8.59	6.03					Nc1cc(F)ccc1NC(=O)C1CCN(C(=O)c2cc(Cc3n[nH]c(=O)c4ccccc34)ccc2F)CC1
